{
  "source": "patent US8003602B2",
  "about": "(priority 2006, dated 2011)",
  "key": {"E. faecium (R-2)": {"tested_on": "E. faecium (R-2)", "assay_type": "cell-based, Enterococcus faecium", "conditions": "E. faecium R-2 (VRE)", "source_text": "(§1) The in-vitro potency was established by minimum inhibitory concentration (MIC) determinations of the compound PM181104 against bacterial strains, by using the Macro-broth dilution method as per National Committee for Clinical Laboratory Standards (2000) guidelines [Journal of Anti-microbial Chemotherapy, 2002, 50, 125-128 (Cross Reference 8: Methods for Dilution Antimicrobial Susceptibility Tests for Bacteria that Grow Aerobically-Fifth Edition: Approved Standard M7-A5. NCCLS, Wayne, Pa., USA)]. Unless stated otherwise, Mueller-Hinton broth was used as nutrient medium for the assay. Linezolid (manufactured by Glenmark Pharma Ltd; Batch no: K2005028) was used as known standard in all in-vitro experiments. For preparation of the stock solution the compound PM181104 was dissolved in chloroform (5% of the total required volume) and diluted using methanol (95% of the total required volume)."}, "S. aureus E-710 [1]": {"tested_on": "S. aureus E-710", "assay": "Neutropenic thigh model", "assay_type": "in vivo, Balb/C mice", "conditions": "Linezolid at 25 mg/kg dose", "source_text": "(§2) The in-vivo potency was established by protection dose (PD) determinations of the compound PM181104 for its antibiotic activity in three animal models using either male or female Balb/C mice.\n(§3) The models used were the general purpose efficacy testing models and organ/tissue specific efficacy testing models. The general purpose efficacy testing models used were systemic infection model (septicemia), and localized infection model (neutropenic thigh model). The Organ/Tissue specific infection models used for efficacy testing were kidney, lung infection, and skin abscess model.\nEach experimental group consisted of six animals. PM181104 was prepared in cremophor-ethanol formulation as described in example 14."}, "[2]": {"tested_on": "methicillin resistant S. aureus E710 (MRSA)", "assay_type": "in vivo, Balb/C mice", "conditions": "Linezolid at 50 mg/kg dose", "source_text": "as §2, §3\nBalb/C mice were infected subcutaneously with approximately 10^8 cfu of an overnight grown culture of methicillin resistant S. aureus E710 (MRSA). The bacteria were suspended in 1:1 mixture of 2% cytodex beads in normal saline (0.85% sodium chloride). PM181104 was prepared in cremophor-ethanol formulation as described in example 14. The solution was administered intravenously at 2.5 mg, 5 mg and 10 mg/kg doses, two hours post infection. Each experimental group consisted of six animals. Following abscess formation the animals were sacrificed and abscess harvested to determine the viable counts. […] Linezolid (manufactured by Glenmark Pharma Ltd; Batch no: K2005028) at 50 mg/kg dose."}, "S. aureus E-710 [3]": {"tested_on": "S. aureus E-710", "assay": "Lung infection model", "assay_type": "in vivo, Balb/C mice", "source_text": "as §2, §3\nBalb/C mice were rendered neutropenic by intraperitoneally administering 200 mg/kg cyclophosphamide four days and two days prior to infection. On the day of infection, the mice were anesthetized and infected with S. aureus E-710 log-phase culture suspension having bacterial density of approximately 10^6 to 10^7 cfu/ml. 24 and 36 hours post infection the first and second respective dose of drug was administered intravenously. 48 hours post infection, the animals were humanely euthanized and their lungs were aseptically collected to determine the viable count of bacteria. In this model, PM181104 was tested at 5 mg/kg dose prepared in cremophor-ethanol formulation as described in example 14. Two standard antibiotics viz. Linezolid (80 mg/kg single dose at 24 hours post infection) and Vancomycin (110 mg/kg, two doses at 24 and 48 hours post infection) were used as positive controls."}, "[4]": {"tested_on": "methicillin resistant Staphylococcus aureus E710 (MRSA)", "assay": "Systemic infection model (septicemia)", "assay_type": "in vivo, Balb/C mice", "conditions": "mice infected intraperitoneally with MRSA E710, administered intravenously immediately after infection", "source_text": "as §2, §3\nThe animals were infected intraperitoneally with ˜10^8 to 10^9 cfu of an overnight grown culture of methicillin resistant Staphylococcus aureus E710 (MRSA), suspended in normal saline (0.85% sodium chloride). PM181104 solution was prepared in cremophor-ethanol formulation as described in example 14. The solution was administered intravenously at 5 mg, 2.5 mg and 1.25 mg/kg doses, immediately after infection. Each experimental group consisted of ten animals."}, "[5]": {"tested_on": "Enterococcus faecium ATCC 47077", "assay": "Kidney infection model", "assay_type": "in vivo, Balb/C mice", "source_text": "as §2, §3\n0.2 ml of 2% λ Carrageenan was administered intravenously to Balb/C mice 7 days prior to infection. Overnight grown log phase culture of Enterococcus faecium ATCC 47077 adjusted to approximately 10^9 cfu/ml, was injected intravenously to the mice at a volume of 0.2 ml. PM181104 solution, prepared in cremophor-ethanol formulation as described in example 14, was administered intravenously to the mice at 4 hours, 24 hours and 48 hours post-infection. At 72 hours post infection, the animals were sacrificed and kidneys were harvested to determine the bacterial load. […] Linezolid (manufactured by Glenmark Pharma Ltd; Batch no: K2005028) at 25 mg/kg and Vancomycin hydrochloride (manufactured by HiMedia; Catalogue no: RM217-500 mg; Lot no: 06-0350) at 150 mg/kg dose."}, "S. aureus (E710)": {"tested_on": "S. aureus (E710)", "assay": "MIC, Macro-broth dilution method", "assay_type": "cell-based, Staphylococcus aureus", "conditions": "S. aureus MRSA E710", "source_text": "as §1"}, "E. faecalis, ATCC 51299": {"tested_on": "E. faecalis, ATCC 51299", "assay_type": "cell-based", "source_text": "as §1"}, "E. faecalis ATCC 51575": {"tested_on": "E. faecalis ATCC 51575", "assay_type": "cell-based", "source_text": "as §1"}, "[6]": {"tested_on": "Staphylococcus aureus subsp. aureus ATCC 33591", "assay_type": "cell-based", "conditions": "S. aureus MRSA ATCC 33591", "source_text": "as §1"}, "E. faecalis ATCC BAA 472": {"tested_on": "E. faecalis ATCC BAA 472", "assay": "MIC, Macro-broth dilution method", "assay_type": "cell-based", "source_text": "as §1"}, "E. faecium ATCC 51559": {"tested_on": "E. faecium ATCC 51559", "assay_type": "cell-based, Enterococcus faecium", "source_text": "as §1"}},
  "note": "Structures can show the parent of a compound that is named as a salt.",
  "data": [
    {"smiles": "C=C(NC(=O)C(=C)NC(=O)C1CCCN1C(=O)c1nc(-c2ccc(-c3nc(C(=O)NC(=C)C(=O)NC(C)C(N)=O)cs3)c(-c3csc(C4Cc5nc(cs5)C(=O)NC(Cc5ccccc5)C5=NC(CS5)C(=O)NC(Cc5ccc(OC(=O)CCC)cc5)C(=O)N5CCCC5c5nc(cs5)C(=O)N4)n3)n2)oc1C)C(N)=O", "note": "(stereo not shown) [Butyric Acid Ester Derivative of PM181104]", "values": [
      {"measurement": "MIC", "setting": "E. faecium (R-2)", "value": 2.5, "unit": "µg/mL"}
    ]},
    {"smiles": "CC(=O)NC[C@H]1CN(c2ccc(N3CCOCC3)c(F)c2)C(=O)O1", "note": "[Linezolid, reference compound]", "values": [
      {"measurement": "decrease in viable counts in thigh tissue, comparison with PM181104", "setting": "S. aureus E-710 [1]", "value": "comparable"},
      {"measurement": "decrease in bacterial count in abscess, comparison with PM181104", "setting": "[2]", "value": "comparable"},
      {"measurement": "activity profile in lung infection, comparison with PM181104", "setting": "S. aureus E-710 [3]; Linezolid 80 mg/kg single dose at 24 hours post infection", "value": "comparable"},
      {"measurement": "PD100", "setting": "[4]", "value": 25, "unit": "mg/kg"},
      {"measurement": "decrease in bacterial count in kidneys, comparison with PM181104", "setting": "[5]; Linezolid at 25 mg/kg", "value": "comparable"}
    ]},
    {"smiles": "C=C(NC(=O)C(=C)NC(=O)C1CCCN1C(=O)c1nc(-c2ccc(-c3nc(C(=O)NC(=C)C(=O)NC(C)C(N)=O)cs3)c(-c3csc(C4Cc5nc(cs5)C(=O)NC(Cc5ccccc5)C5=NC(CS5)C(=O)NC(Cc5ccc(OC(=O)c6cccnc6)cc5)C(=O)N5CCCC5c5nc(cs5)C(=O)N4)n3)n2)oc1C)C(N)=O", "note": "(stereo not shown) [Nicotinic Acid Ester Derivative of PM181104]", "values": [
      {"measurement": "MIC", "setting": "S. aureus (E710)", "value": ">10", "unit": "µg/mL"},
      {"measurement": "MIC", "setting": "E. faecalis, ATCC 51299", "value": 0.312, "unit": "µg/mL"},
      {"measurement": "MIC", "setting": "E. faecalis ATCC 51575", "value": 0.312, "unit": "µg/mL"},
      {"measurement": "MIC", "setting": "[6]", "value": ">10", "unit": "µg/mL"},
      {"measurement": "MIC", "setting": "E. faecalis ATCC BAA 472", "value": 0.312, "unit": "µg/mL"},
      {"measurement": "MIC", "setting": "E. faecium ATCC 51559", "value": 0.156, "unit": "µg/mL"},
      {"measurement": "MIC", "setting": "E. faecium (R-2)", "value": 0.312, "unit": "µg/mL"}
    ]},
    {"smiles": "C=C(NC(=O)C(=C)NC(=O)C1CCCN1C(=O)c1nc(-c2ccc(-c3nc(C(=O)NC(=C)C(=O)NC(C)C(N)=O)cs3)c(-c3csc(C4Cc5nc(cs5)C(=O)NC(Cc5ccccc5)C5=NC(CS5)C(=O)NC(Cc5ccc(OC(=O)CCCCCCCCCCCCCCCCC)cc5)C(=O)N5CCCC5c5nc(cs5)C(=O)N4)n3)n2)oc1C)C(N)=O", "note": "(stereo not shown) [Stearic Acid Ester Derivative of PM181104]", "values": [
      {"measurement": "MIC", "setting": "E. faecium (R-2)", "value": 1.25, "unit": "µg/mL"}
    ]},
    {"smiles": "CN[C@H](CC(C)C)C(=O)N[C@H]1C(=O)N[C@@H](CC(N)=O)C(=O)N[C@H]2C(=O)N[C@H]3C(=O)N[C@H](C(=O)N[C@H](C(=O)O)c4cc(O)cc(O)c4-c4cc3ccc4O)[C@H](O)c3ccc(c(Cl)c3)Oc3cc2cc(c3O[C@@H]2O[C@H](CO)[C@@H](O)[C@H](O)[C@H]2O[C@H]2C[C@](C)(N)[C@H](O)[C@H](C)O2)Oc2ccc(cc2Cl)[C@H]1O", "note": "[Vancomycin hydrochloride, reference compound]", "values": [
      {"measurement": "activity profile in lung infection", "setting": "S. aureus E-710 [3]; Vancomycin 110 mg/kg, two doses at 24 and 48 hours post infection", "value": "bactericidal profile"},
      {"measurement": "decrease in bacterial count in kidneys, comparison with PM181104", "setting": "[5]; Vancomycin hydrochloride at 150 mg/kg dose", "value": "comparable"}
    ]}
  ]
}
